One experiment concerns the target T1, CDK5/p25 (Homo sapiens, UniProt Q00535).
T1 construct: purchased Invitrogen PR8543B
Nature of the experiment: Enzymatic assay for CDK5 (FRET based LANCE Ultra kinase assay). The experiment is classed as biochemical. The note with it: read-out: CDK5 enzymatic activity (IC50 range). In short, it runs like this:
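LANCE Ultra TR-FRET: ULight-MBP peptide (68 nM) with ATP at Km, […], 60 min at 23° C. EDTA plus Eu-anti-phospho-MBP added, another 60 min, then 665/615 nm emission read. Compounds tested as 8-dose 4-fold DMSO dilutions.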
On the technique in general: Time-resolved FRET reads energy transfer from a long-lived donor to a nearby acceptor.

Another experiment has as its target T2, CDK7/Cyclin H/MNAT1 (Homo sapiens, UniProt P50613).
T2 construct: purchased Invitrogen PR6749B
Briefly: Enzymatic assay for CDK7 (FRET based LANCE Ultra kinase assay). The experiment is classed as biochemical. The method in brief: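 LANCE Ultra TR-FRET kinase assay using a ULight-labeled peptide substrate and a Eu-labeled anti-phospho antibody, with ATP at its Km. Purified CDK/cyclin complex was added to compound after brief centrifugation.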

The next experiment deals with HCT116. Briefly: Cellular HCT116 viability assay (CellTiter-Glo, 72 hours). To be noted: Homo sapiens, HCT-116. The class given is cell-based. The method in brief:
(§1)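 72 h treatment, 37 °C, 5% CO2; DMSO ctrl, final <0.1%; CellTiter-Glo luminescence; n=2.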
Background: In ATP-based viability assays light output follows the ATP content of the culture.

In the next experiment the test system is H460. Briefly: Cellular H460 viability assay (CellTiter-Glo, 72 hours). The experiment is classed as cell-based. The note with it: Homo sapiens, NCI-H460. In short, it runs like this:
as §1

The target of the next experiment is T3, CDK1/CycA2 (Homo sapiens, UniProt P06493).
T3 construct: purchased ProQinase GmbH
T3 sequence (P06493 whole entry): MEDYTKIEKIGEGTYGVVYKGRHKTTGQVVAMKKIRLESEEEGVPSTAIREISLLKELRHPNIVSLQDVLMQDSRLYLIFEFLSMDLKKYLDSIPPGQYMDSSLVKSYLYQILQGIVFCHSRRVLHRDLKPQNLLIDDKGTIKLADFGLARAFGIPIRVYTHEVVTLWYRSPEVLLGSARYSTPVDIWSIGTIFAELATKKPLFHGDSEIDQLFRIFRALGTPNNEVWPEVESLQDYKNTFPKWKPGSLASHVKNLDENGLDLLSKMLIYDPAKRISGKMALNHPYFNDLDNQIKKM
T3 sequence (P20248 whole entry partner): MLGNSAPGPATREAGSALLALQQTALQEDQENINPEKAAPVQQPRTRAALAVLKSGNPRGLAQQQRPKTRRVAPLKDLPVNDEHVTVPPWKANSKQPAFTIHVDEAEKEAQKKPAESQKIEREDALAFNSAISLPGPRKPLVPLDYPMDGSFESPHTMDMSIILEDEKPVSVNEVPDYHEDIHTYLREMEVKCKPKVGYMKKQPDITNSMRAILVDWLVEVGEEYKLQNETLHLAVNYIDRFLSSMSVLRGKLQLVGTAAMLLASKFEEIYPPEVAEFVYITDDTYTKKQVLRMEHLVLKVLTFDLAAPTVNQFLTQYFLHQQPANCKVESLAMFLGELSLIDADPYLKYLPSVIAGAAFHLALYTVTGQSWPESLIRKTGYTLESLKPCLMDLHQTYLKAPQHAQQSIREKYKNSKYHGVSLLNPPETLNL
Nature of the experiment: In vitro IC50 profile for CDKs family kinase (33PanQinase radiometric assay). The experiment is classed as biochemical. The note with it: CDK7 selectivity profile in CDKs family. The method, then:
(§2) In Vitro IC50 Profile for CDK7 Inhibitor Among 28 CDKs Family Kinases.
(§3) The IC50 profile of compounds were determined using 28 CDKs family protein kinases through ProQinase GmbH (Freiburg, Germany). All the protocol and materials had been provided by ProQinase GmbH. Briefly, in the process, 90 μl H2O were added to each well of a compound dilution plate. To minimize potential precipitation, the H2O was added to the plate only a few minutes before the transfer of the compound solutions into the assay plates. The plate was shaken thoroughly, resulting in a “compound dilution plate/10% DMSO”. The compound dilution plate(s) were discarded at the end of the working day. For the assays (see below), 5 μl solution from each well of the compound dilution plate were transferred into the assay plates. The final volume of the assay was 50 μl. All compounds were tested at 10 final assay concentrations in the range from 1×10^−05 M to 3×10^−10 M. The final DMSO concentration in the reaction cocktails was 1% in all cases. All protein kinases provided by ProQinase were expressed in Sf9 insect cells or in E. coli as recombinant GST-fusion proteins or His-tagged proteins, either as full-length or enzymatically active fragments. All kinases were produced from human cDNAs and purified by either GSH affinity chromatography or immobilized metal affinity chromatography. The purity of the protein kinases was examined by SDS-PAGE/Coomassie staining, the identity was checked by mass spectroscopy. Kinases from external vendors, Carna Biosciences Inc.; Invitrogen Corp.; and Millipore Corp., were expressed, purified and quality-controlled by virtue of the vendors readings. A radiometric protein kinase assay (^33PanQinase® Activity Assay) was used for measuring the kinase activity of the 28 protein kinases. All kinase assays were performed in 96-well FlashPlates™ from PerkinElmer (Boston, MA, USA) in a 50 μl reaction volume. The reaction cocktails were incubated at 30° C. for 60 minutes. The reaction was stopped with 50 μl of 2% (v/v) H3PO4, plates were aspirated and washed two times with 200 μl 0.9% (w/v) NaCl. Incorporation of ^33Pi was determined with a microplate scintillation counter (Microbeta, Wallac). All assays were performed with a BeckmanCoulter/SAGIAN™ Core System. As part of the data evaluation the low control value from a particular plate was subtracted from the high control value as well as from all 80 “compound values” of the corresponding plate. The residual activity (in %) for each well of a particular plate was calculated by using the following formula: Res. Activity (%)=100×[(cpm of compound−low control)/(high control−low control)]. Results are represented in table (table 10).

For a further experiment, the target named is T4, CDK12 R722C/CycK (Homo sapiens, UniProt Q9NYV4, R722C).
T4 construct: either as full-length or enzymatically active fragments; purchased ProQinase GmbH (Freiburg, Germany)
T4 sequence (Q9NYV4 whole entry R722C, the tested form may be a part): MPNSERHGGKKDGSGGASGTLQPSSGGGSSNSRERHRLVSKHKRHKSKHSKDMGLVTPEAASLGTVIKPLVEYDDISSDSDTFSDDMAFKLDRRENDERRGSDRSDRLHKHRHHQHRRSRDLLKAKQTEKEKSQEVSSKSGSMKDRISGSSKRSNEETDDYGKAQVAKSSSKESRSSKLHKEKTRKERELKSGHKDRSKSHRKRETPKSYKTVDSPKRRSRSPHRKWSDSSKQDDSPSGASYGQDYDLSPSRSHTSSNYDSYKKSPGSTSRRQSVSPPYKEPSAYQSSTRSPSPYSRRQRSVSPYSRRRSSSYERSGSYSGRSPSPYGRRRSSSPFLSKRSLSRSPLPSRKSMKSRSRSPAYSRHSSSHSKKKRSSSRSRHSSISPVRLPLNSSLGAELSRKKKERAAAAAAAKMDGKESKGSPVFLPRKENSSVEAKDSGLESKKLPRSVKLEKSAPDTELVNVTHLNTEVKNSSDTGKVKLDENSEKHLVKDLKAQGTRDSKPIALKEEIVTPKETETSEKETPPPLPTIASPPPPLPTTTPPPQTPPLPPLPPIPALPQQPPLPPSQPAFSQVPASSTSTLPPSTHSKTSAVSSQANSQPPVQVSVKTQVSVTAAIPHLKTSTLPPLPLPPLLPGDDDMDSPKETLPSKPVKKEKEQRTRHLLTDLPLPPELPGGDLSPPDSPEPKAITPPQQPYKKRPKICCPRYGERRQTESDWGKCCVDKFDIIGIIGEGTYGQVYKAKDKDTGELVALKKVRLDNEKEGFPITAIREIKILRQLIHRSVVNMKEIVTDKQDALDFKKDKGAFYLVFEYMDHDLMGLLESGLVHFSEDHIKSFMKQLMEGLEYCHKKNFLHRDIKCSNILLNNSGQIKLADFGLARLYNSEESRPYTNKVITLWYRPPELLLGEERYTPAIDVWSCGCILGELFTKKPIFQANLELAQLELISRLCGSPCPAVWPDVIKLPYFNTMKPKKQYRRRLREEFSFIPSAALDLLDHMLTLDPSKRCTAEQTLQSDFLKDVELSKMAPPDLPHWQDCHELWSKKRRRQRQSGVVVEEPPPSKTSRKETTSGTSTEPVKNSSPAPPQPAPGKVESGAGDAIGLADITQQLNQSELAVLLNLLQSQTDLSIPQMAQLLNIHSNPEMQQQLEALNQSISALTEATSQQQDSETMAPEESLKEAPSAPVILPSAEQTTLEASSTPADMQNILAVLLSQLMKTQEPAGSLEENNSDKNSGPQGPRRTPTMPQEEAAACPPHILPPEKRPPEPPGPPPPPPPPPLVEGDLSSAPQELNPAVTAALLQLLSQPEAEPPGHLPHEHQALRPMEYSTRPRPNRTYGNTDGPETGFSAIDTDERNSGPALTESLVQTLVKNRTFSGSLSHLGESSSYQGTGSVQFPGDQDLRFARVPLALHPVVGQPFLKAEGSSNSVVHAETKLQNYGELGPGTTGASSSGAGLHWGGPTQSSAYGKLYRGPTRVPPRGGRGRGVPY
T4 sequence (O75909 whole entry partner, the tested form may be a part): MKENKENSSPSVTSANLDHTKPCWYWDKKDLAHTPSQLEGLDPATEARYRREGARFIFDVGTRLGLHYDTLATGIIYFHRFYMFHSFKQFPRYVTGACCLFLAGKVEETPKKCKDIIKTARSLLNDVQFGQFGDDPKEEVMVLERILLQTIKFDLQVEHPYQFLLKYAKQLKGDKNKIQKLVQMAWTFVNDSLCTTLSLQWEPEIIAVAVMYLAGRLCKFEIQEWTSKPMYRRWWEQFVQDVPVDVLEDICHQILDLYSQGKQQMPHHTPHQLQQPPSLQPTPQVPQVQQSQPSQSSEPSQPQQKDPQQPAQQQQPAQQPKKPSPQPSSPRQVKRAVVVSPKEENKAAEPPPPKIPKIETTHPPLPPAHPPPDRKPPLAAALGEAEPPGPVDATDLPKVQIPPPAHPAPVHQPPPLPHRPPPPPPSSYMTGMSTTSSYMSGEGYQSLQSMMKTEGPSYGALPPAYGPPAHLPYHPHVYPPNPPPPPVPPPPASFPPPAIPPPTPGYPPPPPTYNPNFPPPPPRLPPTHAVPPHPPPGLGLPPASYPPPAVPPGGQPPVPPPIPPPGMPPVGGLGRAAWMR
The description is as above. The experiment is classed as biochemical. To be noted: CDK7 selectivity profile in CDKs family. The method, then:
as §2, §3

A further experiment has as its target T5, CDK4/CycD1 (Homo sapiens, UniProt P11802).
T5 construct: purchased ProQinase GmbH
The description is as above. The experiment is classed as biochemical. To be noted: CDK7 selectivity profile in CDKs family. The method, then: as §2, §3

For another experiment, the target named is T6, CDK5/p25NCK (Homo sapiens, UniProt Q00535).
T6 construct: purchased ProQinase GmbH
T6 sequence (Q00535 whole entry): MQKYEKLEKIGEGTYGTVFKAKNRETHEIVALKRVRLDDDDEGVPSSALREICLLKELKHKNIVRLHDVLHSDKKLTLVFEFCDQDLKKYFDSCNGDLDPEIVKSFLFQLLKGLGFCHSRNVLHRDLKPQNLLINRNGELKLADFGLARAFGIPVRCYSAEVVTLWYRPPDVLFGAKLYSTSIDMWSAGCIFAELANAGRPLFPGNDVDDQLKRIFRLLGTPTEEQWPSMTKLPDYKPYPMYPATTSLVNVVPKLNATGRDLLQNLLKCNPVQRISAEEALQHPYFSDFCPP
T6 sequence (Q15078 99-307 partner limits assumed): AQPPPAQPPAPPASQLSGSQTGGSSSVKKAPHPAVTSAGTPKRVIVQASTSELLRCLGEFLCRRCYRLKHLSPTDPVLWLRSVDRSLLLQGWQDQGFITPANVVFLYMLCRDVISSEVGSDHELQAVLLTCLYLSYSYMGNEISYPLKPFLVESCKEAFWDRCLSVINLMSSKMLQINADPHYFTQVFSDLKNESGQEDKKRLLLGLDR
The experiment is described as above. The note with it: CDK7 selectivity profile in CDKs family. The class given is biochemical. How it is done:
as §2, §3

The target in a further experiment is T7, CDK9/CycK (Homo sapiens, UniProt P50750).
T7 construct: purchased ProQinase GmbH
The experiment is described as above. To be noted: CDK7 selectivity profile in CDKs family. The experiment is classed as biochemical. The method, then: as §2, §3

Consider 1 molecule from patent US11945822B2, “Pyrazolo-triazine and/or pyrazolo-pxrimidine derivatives as selective inhibitor of cyclin dependent kinase” (QURIENT CO., LTD., priority 2018, dated 2024).

One may read the IC50 as the midpoint of a concentration-inhibition curve.

T2 sequence (P50613 whole entry): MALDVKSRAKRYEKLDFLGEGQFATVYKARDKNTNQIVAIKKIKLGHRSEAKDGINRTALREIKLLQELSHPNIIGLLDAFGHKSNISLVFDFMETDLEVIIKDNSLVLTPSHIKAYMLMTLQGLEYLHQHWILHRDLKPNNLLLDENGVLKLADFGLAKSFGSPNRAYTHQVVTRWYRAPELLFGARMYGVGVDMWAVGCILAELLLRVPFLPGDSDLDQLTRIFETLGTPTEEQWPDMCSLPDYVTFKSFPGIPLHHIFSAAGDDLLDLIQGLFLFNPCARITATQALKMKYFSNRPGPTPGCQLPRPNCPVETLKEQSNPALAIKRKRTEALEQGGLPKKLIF
T2 sequence (P51946 whole entry partner): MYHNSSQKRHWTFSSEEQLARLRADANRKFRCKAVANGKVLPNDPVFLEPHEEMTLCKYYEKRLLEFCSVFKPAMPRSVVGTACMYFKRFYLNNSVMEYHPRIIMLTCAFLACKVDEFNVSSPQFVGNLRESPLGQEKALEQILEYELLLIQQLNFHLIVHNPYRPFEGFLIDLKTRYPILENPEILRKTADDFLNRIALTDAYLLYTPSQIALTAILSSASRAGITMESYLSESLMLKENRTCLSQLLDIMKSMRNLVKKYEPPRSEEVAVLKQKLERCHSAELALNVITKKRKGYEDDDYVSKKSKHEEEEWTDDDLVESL
T2 sequence (P51948 whole entry partner): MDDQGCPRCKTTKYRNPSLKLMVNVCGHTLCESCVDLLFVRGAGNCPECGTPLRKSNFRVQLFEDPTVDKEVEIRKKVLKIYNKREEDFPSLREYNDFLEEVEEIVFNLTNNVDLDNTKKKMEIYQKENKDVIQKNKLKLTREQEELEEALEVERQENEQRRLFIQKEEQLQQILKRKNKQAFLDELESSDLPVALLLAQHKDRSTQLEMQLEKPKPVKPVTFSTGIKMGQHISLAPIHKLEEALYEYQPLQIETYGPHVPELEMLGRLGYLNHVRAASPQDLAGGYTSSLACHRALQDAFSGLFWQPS
T1 sequence (Q00535 whole entry): as the sequence (Q00535 whole entry) above
T1 sequence (Q15078 99-307 partner limits assumed): as the sequence (Q15078 99-307 partner limits assumed) above

As for `CC(C)c1cnn2c(NCc3c(Cl)cccc3-n3ccc(C(C)(C)O)n3)nc(N3CCC(N)CC3)nc12` [Compound 210], the IC50 on CDK5/p25 was 0.1 to 1 µM; on CDK7/Cyclin H/MNAT1 (read-out: CDK7 enzymatic activity (IC50 range)) it was below 0.1 µM; with HCT116 it was below 1 µM; in the experiment with H460 it was below 1 µM; on CDK1/CycA2, above 10 µM; against CDK12 R722C/CycK, above 10 µM. Further, the IC50 at CDK4/CycD1, at CDK5/p25NCK and against CDK9/CycK was above 10 µM in each case. Also, the “CDK1/CDK7: Selectivity of CDK7 inhibition over CDK1 inhibition” value on CDK7/Cyclin H/MNAT1 (CDK7 over CDK1) is given as “A (A=greater than 200 fold)”. The “CDK2/CDK7: Selectivity of CDK7 inhibition over CDK2 inhibition” value at CDK7/Cyclin H/MNAT1 (CDK7 over CDK2) is reported as “A (A=greater than 200 fold)”. Also, the “CDK5/CDK7: Selectivity of CDK7 inhibition over CDK5 inhibition” value at CDK7/Cyclin H/MNAT1 (CDK7 over CDK5) is recorded as “A (A=greater than 200 fold)”.
